Laboratory results reported in the NIST ThermoML archive (doi:10.1021/je060271a).
± gives the expanded uncertainty stated by the source.

Conditions: 323.15 K, Liquid, Vibrating tube method

CCCCCCC(=O)OCC(COC(=O)CCCCCC)(COC(=O)CCCCCC)COC(=O)CCCCCC [pentaerythritol tetraheptanoate]
Conditions | mass density [kg/m3]
19064 kPa | 968.1 ± 1.2
19081 kPa | 968 ± 1.2
19096 kPa | 968.1 ± 1.2
19124 kPa | 968 ± 1.2
19140 kPa | 968.1 ± 1.2
19154 kPa | 968.1 ± 1.2
19168 kPa | 968.1 ± 1.2
19182 kPa | 968.1 ± 1.2
19199 kPa | 968.2 ± 1.2
19213 kPa | 968.2 ± 1.2
19228 kPa | 968.1 ± 1.2
19245 kPa | 968.2 ± 1.2
19259 kPa | 968.2 ± 1.2
19273 kPa | 968.3 ± 1.2
19289 kPa | 968.3 ± 1.2
19303 kPa | 968.3 ± 1.2
19320 kPa | 968.2 ± 1.2
19334 kPa | 968.3 ± 1.2
19351 kPa | 968.3 ± 1.2
19366 kPa | 968.3 ± 1.2
19380 kPa | 968.2 ± 1.2
19394 kPa | 968.4 ± 1.2
19411 kPa | 968.4 ± 1.2
19425 kPa | 968.4 ± 1.2
19440 kPa | 968.3 ± 1.2
19457 kPa | 968.3 ± 1.2
19472 kPa | 968.4 ± 1.2
19489 kPa | 968.3 ± 1.2
19503 kPa | 968.3 ± 1.2
19564 kPa | 968.3 ± 1.2
19579 kPa | 968.3 ± 1.2
19597 kPa | 968.4 ± 1.2
19611 kPa | 968.4 ± 1.2
19629 kPa | 968.5 ± 1.2
19644 kPa | 968.5 ± 1.2
19659 kPa | 968.5 ± 1.2
19674 kPa | 968.5 ± 1.2
19688 kPa | 968.5 ± 1.2
19706 kPa | 968.5 ± 1.2
19721 kPa | 968.5 ± 1.2
19738 kPa | 968.5 ± 1.2
19754 kPa | 968.6 ± 1.2
19769 kPa | 968.5 ± 1.2
19787 kPa | 968.5 ± 1.2
19802 kPa | 968.5 ± 1.2
19816 kPa | 968.5 ± 1.2
19834 kPa | 968.5 ± 1.2
19850 kPa | 968.5 ± 1.2
19864 kPa | 968.6 ± 1.2
19882 kPa | 968.7 ± 1.2
19898 kPa | 968.5 ± 1.2
19913 kPa | 968.7 ± 1.2
19928 kPa | 968.6 ± 1.2
19947 kPa | 968.6 ± 1.2
19977 kPa | 968.5 ± 1.2
19995 kPa | 968.5 ± 1.2
20026 kPa | 968.6 ± 1.2
20044 kPa | 968.7 ± 1.2
20059 kPa | 968.7 ± 1.2
20075 kPa | 968.6 ± 1.2
20094 kPa | 968.8 ± 1.2
20109 kPa | 968.7 ± 1.2
20125 kPa | 968.8 ± 1.2
20141 kPa | 968.8 ± 1.2
20159 kPa | 968.8 ± 1.2
20175 kPa | 968.9 ± 1.2
20193 kPa | 968.8 ± 1.2
20209 kPa | 968.9 ± 1.2
20224 kPa | 968.8 ± 1.2
20240 kPa | 968.9 ± 1.2
20258 kPa | 969 ± 1.2
20274 kPa | 968.8 ± 1.2
20293 kPa | 968.9 ± 1.2
20309 kPa | 968.8 ± 1.2
20325 kPa | 968.8 ± 1.2
20344 kPa | 968.9 ± 1.2
20359 kPa | 968.9 ± 1.2
20375 kPa | 968.9 ± 1.2
20390 kPa | 968.9 ± 1.2
20410 kPa | 968.9 ± 1.2
20426 kPa | 969 ± 1.2
20444 kPa | 969 ± 1.2
20460 kPa | 969 ± 1.2
20476 kPa | 968.9 ± 1.2
20496 kPa | 969 ± 1.2
20512 kPa | 969 ± 1.2
20528 kPa | 969 ± 1.2
20544 kPa | 969 ± 1.2
20564 kPa | 969.1 ± 1.2
20580 kPa | 969 ± 1.2
20596 kPa | 969 ± 1.2
20631 kPa | 969.1 ± 1.2
20648 kPa | 969 ± 1.2
20667 kPa | 969.1 ± 1.2
20684 kPa | 969.2 ± 1.2
20700 kPa | 969.1 ± 1.2
20720 kPa | 969.2 ± 1.2
20737 kPa | 969.1 ± 1.2
20755 kPa | 969.2 ± 1.2
20771 kPa | 969.1 ± 1.2
20791 kPa | 969.2 ± 1.2
20808 kPa | 969.1 ± 1.2
20824 kPa | 969.2 ± 1.2
20841 kPa | 969.2 ± 1.2
20861 kPa | 969.3 ± 1.2
20877 kPa | 969.3 ± 1.2
20894 kPa | 969.3 ± 1.2
20914 kPa | 969.2 ± 1.2
20931 kPa | 969.3 ± 1.2
20985 kPa | 969.2 ± 1.2
21022 kPa | 969.1 ± 1.2
21039 kPa | 969.4 ± 1.2
